According to patent US10656158B2, “Identification of enzyme activity through determination of its localization” (International Business Machines Corporation, priority 2014, dated 2020):

Molecular target: T1, MurA enzyme (Bacillus subtilis, UniProt P70965)
T1 construct: expressed in transfected cells
Assay: MurA-CFP enzyme localization (condensation) by fluorescence imaging in B. subtilis cells
Assay type: cell-based
Details: for state of MurA-CFP enzyme in the cell (localized or diffuse): exposure during exponential growth, 5 mM fosfomycin or 0.5 μg ml^−1 vancomycin, fluorescence imaging, 30° C.
Experimental: Enzymatic activity of the MurA enzyme in Bacillus subtilis was measured in the presence of enzyme condensation modulating agents. MurA enzyme is involved in an enzymatic biosynthetic pathway that catalyzes a biosynthetic precursor of peptidoglycan, a polymer of the cell wall. The agents that were assessed for effects on MurA were antibiotics fosfomycin and vancomycin.
The B. subtilis cells were cultivated to express a MurA-CFP conjugate protein (MurA-cyan fluorescent protein) under its natural promoter. After one hour in exponential growth, 1 ml of cell culture was centrifuged. The supernatant was collected and added to 2 ml of melted […] agarose solution in LB. The resulting 1.2% solution of molten agar/culture supernatant was supplemented with 0.5 μg ml^−1 FM 4-64 dye (N-(3-triethylammoniumpropyl)-4-(6-(4-(diethylamino) phenyl) hexatrienyl) pyridinium dibromide). Then 5 mM fosfomycin or 0.5 μg ml^−1 vancomycin was added to the well of a culture slide (wells 18 mm diameter×1.75 mm depth) and covered with a glass slide.
After cooling, the cover glass was removed and two air pockets were cut out of the agarose with a 15 ml tube, leaving a 3-5 mm agar bridge in the center of the well. Seven microliters of the remaining culture was spread over the agar, partially dried and sealed with cover glass. After cooling, the slide was removed and two air pockets were cut out of the agar leaving a 3-5 mm agar bridge in the center of the well. Cells were suspended in LB with FM4-64 dye (0.5 μg ml^−1) and were added at the agar bridge and covered by a glass coverslip. To prevent drying during the experiment, 50% glycerol was applied to the region of contact between the slide and the coverslip.
The slide was equilibrated in an environmentally controlled chamber at 30° C. (Precision Control Weather Station) for at least 10 min prior to visualization. […] After 2 hours of imaging, MurA-CFP expressing cells stopped growing, but the condensation of the enzyme could be detected by a bright fluorescent spot.

T1 sequence (P70965 whole entry): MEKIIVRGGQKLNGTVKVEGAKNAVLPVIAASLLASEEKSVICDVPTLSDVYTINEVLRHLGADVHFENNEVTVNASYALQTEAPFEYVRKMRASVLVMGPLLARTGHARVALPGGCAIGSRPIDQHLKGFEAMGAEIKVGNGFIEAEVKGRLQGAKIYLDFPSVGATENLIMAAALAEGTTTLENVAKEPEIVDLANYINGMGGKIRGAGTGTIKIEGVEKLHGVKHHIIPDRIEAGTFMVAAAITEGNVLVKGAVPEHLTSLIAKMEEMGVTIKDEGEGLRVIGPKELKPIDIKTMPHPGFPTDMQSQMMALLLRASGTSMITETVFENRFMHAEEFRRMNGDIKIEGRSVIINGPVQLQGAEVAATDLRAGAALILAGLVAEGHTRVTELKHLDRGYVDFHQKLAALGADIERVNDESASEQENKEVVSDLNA

Compound	state of MurA-CFP enzyme in the cell (localized or diffuse)	areas of localized MurA-CFP (added to the cells during stationary growth before MurA began to localize (not shown))
CN[C@H](CC(C)C)C(=O)N[C@H]1C(=O)N[C@@H](CC(N)=O)C(=O)N[C@H]2C(=O)N[C@H]3C(=O)N[C@H](C(=O)N[C@H](C(=O)O)c4cc(O)cc(O)c4-c4cc3ccc4O)[C@H](O)c3ccc(c(Cl)c3)Oc3cc2cc(c3O[C@@H]2O[C@H](CO)[C@@H](O)[C@H](O)[C@H]2O[C@H]2C[C@](C)(N)[C@H](O)[C@H](C)O2)Oc2ccc(cc2Cl)[C@H]1O [Vancomycin, vancomycin]	diffuse	–
C[C@@H]1O[C@@H]1P(=O)(O)O [Fosfomycin, fosfomycin]	localized	not observed
